{"source": "paper PMC8282008", "about": "“Brigatinib causes tumor shrinkage in both NF2-deficient meningioma and schwannoma through inhibition of multiple tyrosine kinases but not ALK” (PLoS ONE, 2021)", "format_in_all_cases": "cell-based", "key": {"[1]": {"molecular_target": "T1, TNK2 (ACK1, Activated Cdc42-associated kinase) (Homo sapiens, UniProt Q07912)", "T1 construct": "NanoLuc fusion (Promega NV4451)", "T1 sequence (Q07912 whole entry, the tested form may be a part)": "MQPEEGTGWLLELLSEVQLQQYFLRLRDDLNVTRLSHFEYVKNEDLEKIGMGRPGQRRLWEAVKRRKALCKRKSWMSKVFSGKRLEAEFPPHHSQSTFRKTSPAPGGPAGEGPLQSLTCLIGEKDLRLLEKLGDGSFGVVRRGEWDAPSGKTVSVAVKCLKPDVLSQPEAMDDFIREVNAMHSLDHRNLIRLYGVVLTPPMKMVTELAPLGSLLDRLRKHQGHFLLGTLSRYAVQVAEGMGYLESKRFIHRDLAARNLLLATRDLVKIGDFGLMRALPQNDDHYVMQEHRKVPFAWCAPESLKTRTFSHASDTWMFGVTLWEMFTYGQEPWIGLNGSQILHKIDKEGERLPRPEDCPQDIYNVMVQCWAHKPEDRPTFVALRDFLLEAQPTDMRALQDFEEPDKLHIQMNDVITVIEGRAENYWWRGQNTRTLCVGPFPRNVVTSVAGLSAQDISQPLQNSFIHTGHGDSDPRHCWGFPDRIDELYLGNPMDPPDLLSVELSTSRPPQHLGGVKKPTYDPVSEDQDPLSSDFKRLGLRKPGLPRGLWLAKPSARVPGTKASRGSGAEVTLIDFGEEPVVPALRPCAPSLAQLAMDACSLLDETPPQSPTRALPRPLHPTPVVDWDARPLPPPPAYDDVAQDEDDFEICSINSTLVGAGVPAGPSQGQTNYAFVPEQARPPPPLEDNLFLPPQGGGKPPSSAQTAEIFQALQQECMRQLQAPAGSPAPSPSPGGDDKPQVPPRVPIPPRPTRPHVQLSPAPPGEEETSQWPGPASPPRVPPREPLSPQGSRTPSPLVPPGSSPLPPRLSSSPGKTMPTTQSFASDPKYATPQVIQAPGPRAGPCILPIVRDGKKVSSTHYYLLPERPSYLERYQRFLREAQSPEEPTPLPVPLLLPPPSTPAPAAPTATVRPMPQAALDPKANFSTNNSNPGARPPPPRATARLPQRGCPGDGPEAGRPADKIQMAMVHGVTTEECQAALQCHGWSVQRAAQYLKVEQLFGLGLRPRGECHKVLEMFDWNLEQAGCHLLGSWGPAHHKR", "experiment": "NanoBRET TE intracellular kinase assay with K-10 tracer in HEK293T cells"}, "[2]": {"molecular_target": "T2, FER (Fps/Fes-related kinase) (Homo sapiens, UniProt P16591)", "T2 construct": "NanoLuc fusion (Promega NV1331)", "T2 sequence (P16591 whole entry, the tested form may be a part)": "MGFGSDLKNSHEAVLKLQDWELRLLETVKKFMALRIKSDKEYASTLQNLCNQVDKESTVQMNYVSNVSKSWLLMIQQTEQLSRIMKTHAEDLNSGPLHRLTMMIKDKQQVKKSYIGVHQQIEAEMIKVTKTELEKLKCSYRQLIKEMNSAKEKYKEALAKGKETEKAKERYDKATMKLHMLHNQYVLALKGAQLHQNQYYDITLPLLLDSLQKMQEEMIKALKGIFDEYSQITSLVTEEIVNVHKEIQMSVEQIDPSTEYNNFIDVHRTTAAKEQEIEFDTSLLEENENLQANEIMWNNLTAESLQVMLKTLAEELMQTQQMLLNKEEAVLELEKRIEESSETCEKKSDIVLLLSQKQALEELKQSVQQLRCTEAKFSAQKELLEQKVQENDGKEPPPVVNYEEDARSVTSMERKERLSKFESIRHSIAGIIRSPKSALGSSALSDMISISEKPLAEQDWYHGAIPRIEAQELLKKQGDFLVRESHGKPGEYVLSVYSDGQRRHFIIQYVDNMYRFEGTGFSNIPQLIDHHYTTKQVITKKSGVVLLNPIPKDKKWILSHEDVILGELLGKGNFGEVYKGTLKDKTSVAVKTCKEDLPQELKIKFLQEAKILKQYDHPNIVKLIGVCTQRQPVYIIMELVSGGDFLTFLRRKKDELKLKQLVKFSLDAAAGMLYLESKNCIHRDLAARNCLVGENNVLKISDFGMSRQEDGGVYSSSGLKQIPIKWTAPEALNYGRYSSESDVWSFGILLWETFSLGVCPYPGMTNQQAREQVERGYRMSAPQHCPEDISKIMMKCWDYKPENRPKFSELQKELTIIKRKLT", "experiment": "NanoBRET TE intracellular kinase assay with K-10 tracer in HEK293T cells"}, "FAK2 (PTK2B)": {"molecular_target": "FAK2 (PTK2B) (Homo sapiens, UniProt Q14289)", "sequence (Q14289 whole entry)": "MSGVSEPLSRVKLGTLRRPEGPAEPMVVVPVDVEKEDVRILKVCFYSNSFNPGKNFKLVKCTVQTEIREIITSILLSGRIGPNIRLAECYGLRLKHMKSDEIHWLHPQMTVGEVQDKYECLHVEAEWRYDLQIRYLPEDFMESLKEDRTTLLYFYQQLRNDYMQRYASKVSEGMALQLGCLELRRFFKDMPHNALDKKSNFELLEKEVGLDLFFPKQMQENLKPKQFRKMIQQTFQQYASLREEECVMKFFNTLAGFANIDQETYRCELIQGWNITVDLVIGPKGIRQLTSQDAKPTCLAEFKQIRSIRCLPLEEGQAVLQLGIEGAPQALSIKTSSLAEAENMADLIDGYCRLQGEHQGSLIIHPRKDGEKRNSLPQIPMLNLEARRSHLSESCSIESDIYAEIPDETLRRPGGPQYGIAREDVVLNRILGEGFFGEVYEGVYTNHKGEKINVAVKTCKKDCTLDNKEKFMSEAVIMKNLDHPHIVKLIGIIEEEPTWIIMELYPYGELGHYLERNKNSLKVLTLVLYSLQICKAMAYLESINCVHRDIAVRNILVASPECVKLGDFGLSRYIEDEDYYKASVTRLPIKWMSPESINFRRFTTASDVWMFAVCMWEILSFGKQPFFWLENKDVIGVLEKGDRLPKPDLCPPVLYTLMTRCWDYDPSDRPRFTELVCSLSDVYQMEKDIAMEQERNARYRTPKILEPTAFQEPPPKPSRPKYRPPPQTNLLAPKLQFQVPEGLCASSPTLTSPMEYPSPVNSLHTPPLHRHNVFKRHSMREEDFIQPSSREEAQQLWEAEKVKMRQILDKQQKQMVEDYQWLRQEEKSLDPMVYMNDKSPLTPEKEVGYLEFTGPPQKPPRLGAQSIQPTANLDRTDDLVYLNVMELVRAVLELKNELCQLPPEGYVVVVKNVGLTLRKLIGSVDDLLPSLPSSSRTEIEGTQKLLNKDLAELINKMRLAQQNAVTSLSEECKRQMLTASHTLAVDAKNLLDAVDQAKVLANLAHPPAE", "experiment": "MIB/MS kinome profiling, HS01/HS11 Schwann cells, […] (text: lysate treatment; legend: cells treated […] h)"}, "[3]": {"molecular_target": "T3, FAK1 (PTK2, focal adhesion kinase 1) (Homo sapiens, UniProt Q05397)", "T3 construct": "NanoLuc fusion (Promega NV1921)", "T3 sequence (Q05397 2-1052)": "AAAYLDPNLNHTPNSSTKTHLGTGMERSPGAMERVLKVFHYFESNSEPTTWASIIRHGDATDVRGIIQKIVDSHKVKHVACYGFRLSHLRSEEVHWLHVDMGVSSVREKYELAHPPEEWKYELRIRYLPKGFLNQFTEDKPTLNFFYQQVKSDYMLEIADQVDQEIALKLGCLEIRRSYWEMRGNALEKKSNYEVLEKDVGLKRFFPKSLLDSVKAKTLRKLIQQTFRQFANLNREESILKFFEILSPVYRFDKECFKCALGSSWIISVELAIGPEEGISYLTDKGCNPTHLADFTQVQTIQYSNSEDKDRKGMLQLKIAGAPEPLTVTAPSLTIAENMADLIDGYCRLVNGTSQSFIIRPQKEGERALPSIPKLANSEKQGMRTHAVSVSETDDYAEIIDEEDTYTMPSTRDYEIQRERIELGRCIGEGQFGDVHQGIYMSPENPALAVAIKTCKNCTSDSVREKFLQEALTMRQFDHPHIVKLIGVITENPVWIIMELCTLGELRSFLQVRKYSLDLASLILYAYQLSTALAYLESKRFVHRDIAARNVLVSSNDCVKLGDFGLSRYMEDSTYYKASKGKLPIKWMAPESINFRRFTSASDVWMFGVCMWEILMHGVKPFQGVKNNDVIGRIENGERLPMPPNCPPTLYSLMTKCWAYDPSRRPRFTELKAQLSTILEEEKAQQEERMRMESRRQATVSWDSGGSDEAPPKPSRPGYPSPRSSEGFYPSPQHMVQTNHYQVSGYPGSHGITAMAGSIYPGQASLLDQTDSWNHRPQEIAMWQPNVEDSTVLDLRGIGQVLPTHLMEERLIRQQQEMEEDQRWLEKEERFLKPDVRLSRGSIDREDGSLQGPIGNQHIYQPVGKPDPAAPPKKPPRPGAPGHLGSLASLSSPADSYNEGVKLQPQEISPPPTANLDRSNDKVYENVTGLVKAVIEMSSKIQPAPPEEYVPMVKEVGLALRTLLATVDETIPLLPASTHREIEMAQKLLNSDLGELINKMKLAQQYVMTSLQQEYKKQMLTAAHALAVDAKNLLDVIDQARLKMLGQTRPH", "experiment": "NanoBRET TE intracellular kinase assay with K-10 tracer in HEK293T cells"}, "[4]": {"molecular_target": "T4, GAK (Cyclin G-associated kinase) (Homo sapiens, UniProt O14976)", "T4 construct": "NanoLuc fusion (Promega NV1421)", "T4 sequence (O14976 1-1311)": "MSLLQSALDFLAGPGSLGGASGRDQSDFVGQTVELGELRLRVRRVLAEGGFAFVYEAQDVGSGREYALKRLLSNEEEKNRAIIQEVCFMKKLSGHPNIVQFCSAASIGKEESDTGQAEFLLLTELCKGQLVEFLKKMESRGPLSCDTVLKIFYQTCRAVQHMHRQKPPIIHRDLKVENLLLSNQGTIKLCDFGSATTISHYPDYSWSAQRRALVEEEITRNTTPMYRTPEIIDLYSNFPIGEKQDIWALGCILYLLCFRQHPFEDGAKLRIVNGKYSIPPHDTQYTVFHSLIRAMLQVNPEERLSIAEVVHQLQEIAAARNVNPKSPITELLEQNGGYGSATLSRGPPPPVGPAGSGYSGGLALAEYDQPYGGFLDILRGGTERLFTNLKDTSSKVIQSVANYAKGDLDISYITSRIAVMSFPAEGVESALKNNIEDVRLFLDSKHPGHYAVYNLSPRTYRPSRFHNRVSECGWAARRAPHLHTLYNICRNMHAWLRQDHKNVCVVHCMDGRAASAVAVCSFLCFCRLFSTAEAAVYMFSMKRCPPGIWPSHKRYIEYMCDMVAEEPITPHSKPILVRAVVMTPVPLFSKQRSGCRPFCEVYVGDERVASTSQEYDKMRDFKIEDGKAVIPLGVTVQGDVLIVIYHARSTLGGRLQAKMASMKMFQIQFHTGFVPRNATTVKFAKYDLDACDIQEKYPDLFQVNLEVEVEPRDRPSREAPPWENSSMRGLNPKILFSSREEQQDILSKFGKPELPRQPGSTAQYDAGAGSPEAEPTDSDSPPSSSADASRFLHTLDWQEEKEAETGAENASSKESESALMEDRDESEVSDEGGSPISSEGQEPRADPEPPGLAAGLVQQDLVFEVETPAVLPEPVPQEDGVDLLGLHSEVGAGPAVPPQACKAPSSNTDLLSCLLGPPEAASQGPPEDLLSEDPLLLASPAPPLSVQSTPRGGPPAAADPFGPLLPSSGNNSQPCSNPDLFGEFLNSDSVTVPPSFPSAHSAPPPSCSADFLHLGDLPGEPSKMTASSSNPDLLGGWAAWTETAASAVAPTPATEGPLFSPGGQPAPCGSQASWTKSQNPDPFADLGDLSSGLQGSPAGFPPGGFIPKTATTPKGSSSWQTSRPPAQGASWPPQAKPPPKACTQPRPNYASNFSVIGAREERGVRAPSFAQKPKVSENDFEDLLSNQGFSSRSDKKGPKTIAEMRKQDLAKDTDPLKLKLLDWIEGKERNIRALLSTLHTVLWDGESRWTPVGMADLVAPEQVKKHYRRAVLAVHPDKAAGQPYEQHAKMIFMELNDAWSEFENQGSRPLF", "experiment": "NanoBRET TE intracellular kinase assay with K-10 tracer in HEK293T cells"}}}
{"smiles": "COc1cc(N2CCC(N3CCN(C)CC3)CC2)ccc1Nc1ncc(Cl)c(Nc2ccccc2P(C)(C)=O)n1", "note": "[brigatinib]", "values": [{"measurement": "IC50", "setting": "[1]", "result": 350, "unit": "nM"}, {"measurement": "IC50", "setting": "[2]", "result": 304, "unit": "nM"}, {"measurement": "MIB/MS kinome profiling, HS01/HS11 Schwann cells, 1 uM (text: lysate treatment;)", "setting": "FAK2 (PTK2B)", "result": "kinases with the largest reduction in binding were FER, TNK2, FAK1 (PTK2) and FAK2 (PTK2B)"}, {"measurement": "IC50", "setting": "[3]", "result": 573, "unit": "nM"}, {"measurement": "IC50", "setting": "[4]", "result": 155, "unit": "nM"}]}
